Laboratory results published in US20070179143A1 (priority 2003, published 2007).

Legend:
[1] = test system: SK-OV-3; assay: Cytotoxicity test to cancer cell lines (SRB method), SK-OV-3; format: cell-based; settings: Homo sapiens, SK-OV-3, 48 h, read-out: Cytotoxicity ED50 SK-OV-3
[2] = test system: HCT-15; assay: Cytotoxicity test to cancer cell lines (SRB method), HCT-15; settings: Homo sapiens, HCT-15, 48 h, read-out: Cytotoxicity ED50 HCT15
Method: (§1) Cytotoxicity to A549 (Korea Research Institute of Chemical Technology), SK-OV-3 (Korea Research Institute of Chemical Technology), SK-MEL-2 (Korea Research Institute of Chemical Technology), HCT-15 (Korea Research Institute of Chemical Technology) and MCF7 (Korean Cell Line Bank, Seoul National University School of medicine) cells was measured by Sulforhodamin-B (SRB) method (1989, National Cancer Institute (NCI)) which was developed for the measurement of in vitro anticancer activity of a drug. Cells were separated using 0.25% trypsin-EDTA solution, leading to the preparation of a cell suspension by 5×10^318 2×10^4 cells/well. Then, the suspension was distributed into a 96 well plate by 100 μl/well, which was cultured in a 37° C., 5% CO2 incubator for 24 hours. Compounds prepared in examples of the present invention were used as a sample. Precisely, the compound was dissolved in dimethylsulfoxide and diluted with RPMI 1640 medium before being used as a sample. The final concentration of the sample used varied ranging 1 μM˜0.00001 μM. The medium was removed from the 96 well plate and then diluted sample solution was added by 100 μl/well, followed by further culture in a 37° C., 5% CO2 incubator for 48 hours. Tz (time zero) plate was collected from the point of adding the sample. Upon completing the culture, the medium was removed from each well along with Tz plate, then 10% trichloroacetic acid (TCA) was added by 100 μl/well. The plate was left at 4° C. for 1 hour to let cells be fixed on the floor of the plate. After cells were fixed completely, the plate was washed with water 5-6 times to remove the remaining trichloroacetic acid solution completely and moisture was completely dried at room temperature. 0.4% Sulforhodamine-B was dissolved in 1% acetic acid solution to prepare a staining solution. Cells were stained for 30 minutes with a dye added by 100 μl to each well of the completely dried plate. Then, the plate was washed with 1% acetic acid solution 5-6 times to remove sulforhodamine-B remained uncombined with cells. Then, the plate was dried at room temperature. 10 mM Tris solution was added by 100 μ/well thereto to dissolve the dye, and optical density (OD) was measured at 520 nm with a micro plate reader.
(§2) ED50 (concentration that inhibits cancer cell growth 50%, 5.0% effective dose, nM/ml) of the sample to cancer cell was calculated as follows. OD value at the point of beginning the culture with the sample was determined as Tz (time zero) value. OD value of a well to be cultured without the sample was determined as a control value (C). OD value of a well pretreated with the sample was determined as experimental value (T). After calculating Tz, C and T, cytotoxicity of the sample was measured by the below <Mathematical Formula 1>. T≦Tz, (T−Tz)/(C−Tz)×100 T>Tz, (T−Tz)/Tz×10,0 <Mathematical Formula 1>
(§3) ED50, the concentration that can inhibit cancer cell growth by 50%, was calculated by using a regression analysis of lotus program based on the degree of cytotoxicity obtained by the <Mathematical Formula 1>.

[3] = test system: SK-MEL-2; assay: Cytotoxicity test to cancer cell lines (SRB method), SK-MEL-2; format: cell-based; settings: Homo sapiens, SK-MEL-2, 48 h, read-out: Cytotoxicity ED50 SK-MEL-2
[4] = test system: A549; assay: Cytotoxicity test to cancer cell lines (SRB method), A549; settings: Homo sapiens, A549, 48 h, read-out: Cytotoxicity ED50 A549
Method: as §1, §2, §3

[5] = test system: MCF7; assay: Cytotoxicity test to cancer cell lines (SRB method), MCF7; settings: read-out: Cytotoxicity ED50 MCF-7, MCF-7, 48 hours
Method: as §1, §2, §3

SMILES: CCOc1cc2c(c(OC)c1OC)-c1ccc(SC)c(=O)cc1[C@@H](NC(=O)c1cc(F)cc(CO[N+](=O)[O-])c1)CC2 [Example 13, N-[(7S)-3-ethoxy-1,2-dimethoxy-10-methylsulfanyl-9-oxo-5,6,7,9-tetrahydro-benzo[a]heptalen-7-yl)-3-fluoro-5-nitrooxymethyl-benzamide]
- EC50 [1]: 0.18 nM
- EC50 [2]: 0.11 nM
- EC50 [3]: 0.04 nM
- EC50 [4]: 0.13 nM
- EC50 [5]: 0.02 nM

SMILES: COc1cc2c(c(OC)c1OC)-c1ccc(SC)c(=O)cc1[C@@H](NC(=O)c1ccc(COC(=O)c3cccc(O[N+](=O)[O-])c3)nc1)CC2 [Example 25, 3-nitrooxy-benzoic acid-5-[(7S)-1,2,3-trimethoxy-10-methylsulfanyl-9-oxo-5,6,7,9-tetrahydro-benzo[a]heptalen-7-yl-carbamoyl]-pyridine-2-yl-methylester]
- EC50 [1]: 5.4 nM
- EC50 [2]: 15 nM
- EC50 [3]: 14 nM
- EC50 [4]: 8.8 nM

SMILES: COc1cc2c(c(OC)c1OC)-c1ccc(SC)c(=O)cc1[C@@H](NC(=O)c1ccc(F)c(CO[N+](=O)[O-])c1)CC2 [Example 16, 4-fluoro-3-nitrooxymethyl-N-[(7S)-1,2,3-trimethoxy-10-methylsulfanyl-9-oxo-5,6,7,9-tetrahydro-benzo[a]heptalen-7-yl]-benzamide]
- EC50 [1]: 1 nM
- EC50 [2]: 1 nM
- EC50 [3]: 1 nM
- EC50 [4]: 1.6 nM

SMILES: COc1cc2c(c(OC)c1OC)-c1ccc(SC)c(=O)cc1[C@@H](NC(=O)c1ccccc1OC(=O)c1cccc(CO[N+](=O)[O-])c1)CC2 [Example 29, 3-nitrooxymethyl-benzoic acid-2-[(7S)-1,2,3-trimethoxy-10-methylsulfanyl-9-oxo-5,6,7,9-tetrahydro-benzo[a]heptalen-7-yl-carbamoyl]-phenylester]
- EC50 [1]: 3 nM
- EC50 [2]: 0.8 nM
- EC50 [3]: 0.9 nM
- EC50 [4]: 1.1 nM

SMILES: COc1cc2c(c(OC)c1OC)-c1ccc(SC)c(=O)cc1[C@@H](NC(=O)c1ccc(COC(=O)CCCO[N+](=O)[O-])nc1)CC2 [Example 26, 4-nitrooxybutyric acid-5-[(7S)-1,2,3-trimethoxy-10-methylsulfanyl-9-oxo-5,6,7,9-tetrahydro-benzo[a]heptalen-7-yl-carbamoyl]-pyridine-2-yl-methylester]
- EC50 [1]: > 50 nM
- EC50 [2]: > 50 nM
- EC50 [3]: 47 nM
- EC50 [4]: 21 nM

SMILES: COc1cc2c(c(OC)c1OC)-c1ccc(SC)c(=O)cc1[C@@H](NC(=O)c1cccc(CON=O)c1)CC2 [Example 36, 3-nitrosooxymethyl-N-[(7S)-1,2,3-trimethoxy-10-methylsulfanyl-9-oxo-5,6,7,9-tetrahydro-benzo[a]heptalen-7-yl]-benzamide]
- EC50 [1]: 1.1 nM
- EC50 [2]: 0.7 nM
- EC50 [3]: 0.1 nM
- EC50 [4]: 2.9 nM

SMILES: COc1cc2c(c(OC)c1OC)-c1ccc(SC)c(=O)cc1[C@@H](NC(=O)c1cc(O)cc(CO[N+](=O)[O-])c1)CC2 [Example 18, 3-hydroxy-5-nitrooxymethyl-N-[(7S)-1,2,3-trimethoxy-10-methylsulfanyl-9-oxo-5,6,7,9-tetrahydro-benzo[a]heptalen-7-yl]-benzamide]
- EC50 [1]: 3.8 nM
- EC50 [2]: 5.3 nM
- EC50 [3]: 1 nM
- EC50 [4]: 8.1 nM

SMILES: COc1cc2c(c(OC)c1OC)-c1ccc(SC)c(=O)cc1[C@@H](NC(=O)c1cccc(CSN=O)c1)CC2 [Example 38, 3-nitrosothiomethyl-N-[(7S)-1,2,3-trimethoxy-10-methylsulfanyl-9-oxo-5,6,7,9-tetrahydro-benzo[a]heptalen-7-yl]-benzamide]
- EC50 [1]: 4.1 nM
- EC50 [2]: 3 nM
- EC50 [3]: 3.3 nM
- EC50 [4]: 2.4 nM

SMILES: COc1cc2c(c(OC)c1OC)-c1ccc(SC)c(=O)cc1[C@@H](NC(=O)c1cccc(COC(=O)c3cccc(CO[N+](=O)[O-])c3)c1)CC2 [Example 33]
- EC50 [1]: 6.6 nM
- EC50 [2]: 1 nM
- EC50 [3]: 2.9 nM
- EC50 [4]: 3.8 nM

SMILES: COc1cc2c(c(OC)c1OC)-c1ccc(SC)c(=O)cc1[C@@H](NC(=O)c1cccc(OC(=O)c3cccc(CO[N+](=O)[O-])c3)c1)CC2 [Example 31, 3-nitrooxymethyl-benzoic acid-3-[(7S)-1,2,3-trimethoxy-10-methylsulfanyl-9-oxo-5,6,7,9-tetrahydro-benzo[a]heptalen-7-yl-carbamoyl]-phenylester]
- EC50 [1]: 3 nM
- EC50 [2]: 0.8 nM
- EC50 [3]: 0.9 nM
- EC50 [4]: 1.1 nM

SMILES: COc1cc2c(c(OC)c1OC)-c1ccc(SC)c(=O)cc1[C@@H](NC(=O)c1cccc(CO[N+](=O)[O-])n1)CC2 [Example 5, 6-nitrooxymethyl-pyridine-2-carboxylic acid-[(7S)-1,2,3-trimethoxy-10-methylsulfanyl-9-oxo-5,6,7,9-tetrahydro-benzo[a]heptalen-7-yl]-amide]
- EC50 [1]: 1 nM
- EC50 [2]: 4.4 nM
- EC50 [3]: 3.1 nM
- EC50 [4]: 1 nM

SMILES: COc1cc2c(c(OC)c1OC)-c1ccc(SC)c(=O)cc1[C@@H](NC(=O)c1ccccc1OC(=O)CCCO[N+](=O)[O-])CC2 [Example 30, 4-nitrooxybutyric acid-2-[(7S)-1,2,3-trimethoxy-10-methylsulfanyl-9-oxo-5,6,7,9-tetrahydro-benzo[a]heptalen-7-yl-carbamoyl]-phenylester]
- EC50 [1]: 8.2 nM
- EC50 [2]: 5.2 nM
- EC50 [3]: 3.6 nM
- EC50 [4]: 3.6 nM

SMILES: COc1cc2c(c(OC)c1OC)-c1ccc(SC)c(=O)cc1[C@@H](NC(=O)c1cccc(OC(=O)CCCO[N+](=O)[O-])c1)CC2 [Example 32, 4-nitrooxybutyric acid-3-[(7S)-1,2,3-trimethoxy-10-methylsulfanyl-9-oxo-5,6,7,9-tetrahydro-benzo[a]heptalen-7-yl-carbamoyl]-phenylester]
- EC50 [1]: 1 nM
- EC50 [2]: 0.08 nM
- EC50 [3]: 0.05 nM
- EC50 [4]: 6.2 nM

SMILES: COc1cc2c(c(OC)c1OC)-c1ccc(SC)c(=O)cc1[C@@H](NC(=O)c1cccc(COC(=O)c3cccc(CO[N+](=O)[O-])c3)n1)CC2 [Example 27, 3-nitrooxymethyl-benzoicacid-6-[(7S) -1,2,3-trimethoxy-10-methylsulfanyl-9-oxo-5,6,7,9-tetrahydro-benzo[a]heptalen-7-yl-carbamoyl]-pyridine-2-yl-methylester]
- EC50 [1]: 16 nM
- EC50 [2]: 2 nM
- EC50 [3]: 7 nM
- EC50 [4]: 5 nM

SMILES: COc1cc2c(c(OC)c1OC)-c1ccc(SC)c(=O)cc1[C@@H](NC(=O)c1ccc(CO[N+](=O)[O-])nc1)CC2 [Example 1, 6-nitrooxymethyl-N-[(7S)-1,2,3-trimethoxy-10-methylsulfanyl-9-oxo-5,6,7,9-tetrahydro-benzo[a]heptalen-7-yl]-nicotineamide]
- EC50 [1]: 1 nM
- EC50 [2]: 0.6 nM
- EC50 [3]: 0.4 nM
- EC50 [4]: 1.8 nM

SMILES: COc1cc2c(c(OC)c1OC)-c1ccc(SC)c(=O)cc1[C@@H](NC(=O)c1cccc(COC(=O)CCCO[N+](=O)[O-])n1)CC2 [Example 28, 4-nitrooxybutyric acid-6-[(7S)-1,2,3-trimethoxy-10-methylsulfanyl-9-oxo-5,6,7,9-tetrahydro-benzo[a]heptalen-7-yl-carbamoyl]-pyridine-2-yl-methylester]
- EC50 [1]: 15 nM
- EC50 [2]: 3 nM
- EC50 [3]: 4 nM
- EC50 [4]: 6 nM
